Earlier results as cited in patent US11963942B2, “Oral taxane compositions and methods” (Athenex HK Innovative Limited, priority 2015, dated 2024).

Biological target: MDR1 (ABCB1) (Homo sapiens, UniProt P08183)
Settings: Kwak et al., Eur. J. Pharm. 627, 92-98 (2010)

Chain of MDR1 (ABCB1) (P08183 whole entry, species assumed): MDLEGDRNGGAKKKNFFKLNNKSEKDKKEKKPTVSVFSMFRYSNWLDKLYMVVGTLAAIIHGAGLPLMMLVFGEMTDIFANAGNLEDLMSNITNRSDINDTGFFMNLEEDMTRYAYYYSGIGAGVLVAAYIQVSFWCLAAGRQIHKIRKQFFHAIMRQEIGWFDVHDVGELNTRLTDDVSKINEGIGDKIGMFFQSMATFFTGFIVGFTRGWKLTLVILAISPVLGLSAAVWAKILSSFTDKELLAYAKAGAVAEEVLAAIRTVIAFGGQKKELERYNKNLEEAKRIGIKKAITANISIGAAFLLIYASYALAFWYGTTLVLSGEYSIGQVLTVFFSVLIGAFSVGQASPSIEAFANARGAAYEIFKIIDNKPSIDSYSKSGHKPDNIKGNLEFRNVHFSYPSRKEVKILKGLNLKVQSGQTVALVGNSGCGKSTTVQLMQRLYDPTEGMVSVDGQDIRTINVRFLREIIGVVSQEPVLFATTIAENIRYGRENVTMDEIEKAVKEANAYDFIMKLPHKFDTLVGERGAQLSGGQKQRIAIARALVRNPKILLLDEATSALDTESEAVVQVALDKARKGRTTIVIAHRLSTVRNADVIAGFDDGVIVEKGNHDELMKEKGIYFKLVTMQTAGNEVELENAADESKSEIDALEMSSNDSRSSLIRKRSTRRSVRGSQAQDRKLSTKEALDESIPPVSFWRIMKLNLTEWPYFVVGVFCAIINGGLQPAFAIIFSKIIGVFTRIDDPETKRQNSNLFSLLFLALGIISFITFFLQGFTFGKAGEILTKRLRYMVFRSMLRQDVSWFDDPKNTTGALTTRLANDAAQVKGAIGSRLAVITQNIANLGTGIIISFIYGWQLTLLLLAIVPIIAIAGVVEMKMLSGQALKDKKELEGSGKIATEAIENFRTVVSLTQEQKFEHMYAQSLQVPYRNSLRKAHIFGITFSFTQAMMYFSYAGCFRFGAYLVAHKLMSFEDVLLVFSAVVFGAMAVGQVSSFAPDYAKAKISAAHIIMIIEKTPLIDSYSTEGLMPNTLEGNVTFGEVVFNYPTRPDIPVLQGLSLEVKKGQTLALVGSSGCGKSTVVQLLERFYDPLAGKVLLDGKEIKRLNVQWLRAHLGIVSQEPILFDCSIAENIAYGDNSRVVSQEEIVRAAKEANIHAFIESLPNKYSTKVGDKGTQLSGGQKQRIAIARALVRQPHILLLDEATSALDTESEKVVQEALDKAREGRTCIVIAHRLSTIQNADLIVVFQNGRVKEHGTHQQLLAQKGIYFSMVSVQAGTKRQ

potency compared with cyclosporine A: more potent than cyclosporine A
SMILES: COc1cc2c(cc1OC)CN(CCc1ccc(-n3nnc(-c4cc(OC)c(OC)cc4NC(=O)c4cc(=O)c5ccccc5o4)n3)cc1)CC2 [HM30181, 4-oxo-4H-chromene-2-carboxylic acid [2-(2-(4-[2-(6,7-dimethoxy-3,4-dihydro-1H-isoquinolin-2-yl)-ethyl]-phenyl)-2H-tetrazol-5-yl)-4,5-dimethoxy-phenyl]-amide]
